Measured values from PMC3038857, “Using Nuclear Receptor Activity to Stratify Hepatocarcinogens” (PLoS ONE, 2011).

Tests used:
PPARg (PPARG) [1] = target: T1, PPARg (PPARG) (Homo sapiens, UniProt P37231); assay: NVS_NR_hPPARg: Human PPARg Fluorescent Ligand (cell-free HTS); type: binding; details: scale not given, looks like -log10 of molar active concentration, 0 = no activity
T1 sequence (P37231 1-505): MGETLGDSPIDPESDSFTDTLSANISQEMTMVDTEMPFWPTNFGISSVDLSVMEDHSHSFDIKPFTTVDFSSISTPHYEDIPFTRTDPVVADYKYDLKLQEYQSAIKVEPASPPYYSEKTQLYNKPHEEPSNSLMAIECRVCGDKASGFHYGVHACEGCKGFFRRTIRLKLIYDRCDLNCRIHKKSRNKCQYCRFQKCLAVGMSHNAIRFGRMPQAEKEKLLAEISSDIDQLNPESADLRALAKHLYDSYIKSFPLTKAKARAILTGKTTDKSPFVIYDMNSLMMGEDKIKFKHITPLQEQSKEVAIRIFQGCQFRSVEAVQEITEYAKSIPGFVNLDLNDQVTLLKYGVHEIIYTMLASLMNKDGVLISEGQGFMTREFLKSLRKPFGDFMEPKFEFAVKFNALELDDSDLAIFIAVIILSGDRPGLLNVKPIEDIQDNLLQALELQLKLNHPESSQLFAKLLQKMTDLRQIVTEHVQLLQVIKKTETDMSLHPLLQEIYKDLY
Excerpt: (§1) These are a collection of biochemical assays measuring binding constants and enzyme inhibition values. Chemicals were initially screened at a single concentration in duplicate wells at a concentration of 10 [drawing 63] M for cytochrome P-450 assays and 25 [drawing 64] M for all others. […] These assays were run by Caliper Life Sciences (Hanover, MD) under contract to EPA. Short assay descriptions are available at: http://www.caliperls.com/products/contract-research/in-vitro/.
(§2) Cell-free HTS Assays: A collection of biochemical assays measuring binding constants and enzyme inhibition values. […] These assays were run by Caliper Life Sciences (Hanover, MD) under contract to EPA. Short assay descriptions are available at http://www.caliperls.com/products/contract-research/in-vitro/. Values for all endpoints were imported into GeneData Screener (Basel, Switzerland) and normalised to solvent controls from the same plate as the tested compounds and expressed as percent of neutral control. Concentration-response curves were fit in GeneData Screener (Basel, Switzerland) Condeseo module using the Hill equation and AC50 values were determined. […] Detailed description of the methods, data and analysis methods for this dataset are described in a separate publication.

PXR (NR1I2) [2] = target: T2, PXR (NR1I2) (Homo sapiens, UniProt O75469); assay: ATG_PXR_TRANS: Factorial reporter gene assay (HepG2); type: cell-based; parameters: endogenous in cells; host or cells: HepG2; details: HepG2; scale not given, looks like -log10 of molar active concentration; 0 = no activity
T2 sequence (O75469 1-434): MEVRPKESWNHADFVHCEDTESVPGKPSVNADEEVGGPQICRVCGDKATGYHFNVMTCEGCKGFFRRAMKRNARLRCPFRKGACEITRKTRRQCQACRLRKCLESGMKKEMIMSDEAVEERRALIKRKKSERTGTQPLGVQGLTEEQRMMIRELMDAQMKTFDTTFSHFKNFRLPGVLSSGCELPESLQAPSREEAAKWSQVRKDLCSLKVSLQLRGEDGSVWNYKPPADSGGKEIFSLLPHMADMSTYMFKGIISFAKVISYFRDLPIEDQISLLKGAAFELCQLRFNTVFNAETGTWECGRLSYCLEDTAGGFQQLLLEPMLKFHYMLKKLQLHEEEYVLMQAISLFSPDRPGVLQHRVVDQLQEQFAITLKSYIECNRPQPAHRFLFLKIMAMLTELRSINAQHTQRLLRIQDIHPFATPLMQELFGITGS
Outline: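 HepG2 cells transfected with multiplexed reporter libraries: cis-acting binding-site reporters (CIS) and a one-hybrid nuclear-receptor trans system (TRANS). Chemicals tested at seven concentrations, starting at the maximum tolerated concentration with three-fold serial dilutions.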

Rat Liver [3] = details: rat chronic study, liver, any lesion; coded 6 / 0, code not explained here; ref ToxRefDB; cited from earlier work
Rat Liver [4] = details: rat chronic study, liver, neoplastic lesion; coded 6 / 0, code not explained here; ref ToxRefDB; cited from earlier work
[5] = target: T3, PPARG (peroxisome proliferator-activated receptor gamma) (Homo sapiens, UniProt P37231); assay: ATG_PPARg_TRANS: Factorial reporter gene assay (HepG2); type: cell-based; details: HepG2; scale not given, looks like -log10 of molar active concentration; 0 = no activity
T3 construct: expressed in transfected cells; host or cells: HepG2
T3 sequence (P37231 1-505): T1 sequence (P37231 1-505)
Outline: (§3)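 CIS (PXRE): HepG2 transfected with 48 TF-binding-site MRTU library. TRANS (ERRg, FXR, PPARg): one-hybrid format, extra 25 nuclear-receptor MRTUs. 7 concs, top = MTC, 3-fold serial dilution.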

Rat Liver [6] = details: rat chronic study, liver, preneoplastic lesion; coded 6 / 0, code not explained here; ref ToxRefDB; cited from earlier work
Human ER (ESR1) = Human ER (ESR1) (Homo sapiens, UniProt P03372); assay: NVS_NR_hER: Human ER 3H-Estradiol (cell-free HTS); type: binding; details: scale not given, looks like -log10 of molar active concentration, 0 = no activity
Excerpt: as §1, §2

PXR (NR1I2) [7] = target: T2, PXR (NR1I2); assay: ATG_PXRE_CIS: Factorial reporter gene assay (HepG2); type: cell-based; parameters: endogenous in cells; host or cells: HepG2; details: HepG2; scale not given, looks like -log10 of molar active concentration; 0 = no activity
Outline: as §3

PPARg (PPARG) [8] = target: T1, PPARg (PPARG); assay: NCGC_PPARg_Agonist: GAL4 BLAM Reporter gene assay: PPARg; type: cell-based; parameters: expressed in transfected cells; host or cells: HEK293; details: agonist mode; scale not given, looks like -log10 of molar active concentration; 0 = no activity
Outline: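 Cell-based GAL4 beta-lactamase reporter assays run at NIH Chemical Genomics Center as part of Tox21. Curve fits required R^2 ≥0.5; values where only the highest concentration exceeded 50% activity were excluded.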

Chain of Human ER (ESR1) (P03372 whole entry): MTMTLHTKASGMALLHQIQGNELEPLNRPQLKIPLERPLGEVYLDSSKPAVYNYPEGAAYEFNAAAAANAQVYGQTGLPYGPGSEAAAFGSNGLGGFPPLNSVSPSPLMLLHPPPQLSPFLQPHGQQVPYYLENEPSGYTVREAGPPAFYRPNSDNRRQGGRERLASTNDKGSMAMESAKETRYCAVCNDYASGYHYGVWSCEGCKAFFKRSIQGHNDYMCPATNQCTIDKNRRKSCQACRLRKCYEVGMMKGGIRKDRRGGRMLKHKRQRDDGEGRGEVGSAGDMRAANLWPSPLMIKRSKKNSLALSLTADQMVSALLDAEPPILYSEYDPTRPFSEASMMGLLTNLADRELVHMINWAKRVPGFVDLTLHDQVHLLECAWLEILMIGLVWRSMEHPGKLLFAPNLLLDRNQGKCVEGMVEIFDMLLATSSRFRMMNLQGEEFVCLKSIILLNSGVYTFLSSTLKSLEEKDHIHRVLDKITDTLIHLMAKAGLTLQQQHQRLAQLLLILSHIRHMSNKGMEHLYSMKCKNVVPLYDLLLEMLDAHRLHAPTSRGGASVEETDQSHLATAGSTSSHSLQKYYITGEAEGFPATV

Row | Structure (SMILES) | NVS_NR_hPPARg (PPARg (PPARG) [1]) | ATG_PXR_TRANS (PXR (NR1I2) [2]) | CHR_Rat_Liver_1_AnyLesion (Rat Liver [3]) | CHR_Rat_Liver_3_NeoplasticLesion (Rat Liver [4]) | ATG_PPARg_TRANS [5] | CHR_Rat_Liver_2_PreneoplasticLesion (Rat Liver [6]) | NVS_NR_hER (Human ER (ESR1)) | ATG_PXRE_CIS (PXR (NR1I2) [7]) | NCGC_PPARg_Agonist (PPARg (PPARG) [8])
1 | CC(C)N1C(=O)c2ccccc2NS1(=O)=O [r37] | 0 | 4.328 | 0 | 0 | 0 | 0 | 0 | 4.638 | 0
2 | COc1ccc(-c2ccccc2)cc1NNC(=O)OC(C)C [r38] | 0 | 4.959 | 0 | 0 | 4.301 | 0 | 0 | 4.921 | 0
3 | Cc1c(COC(=O)C2C(/C=C(\Cl)C(F)(F)F)C2(C)C)cccc1-c1ccccc1 (stereo not drawn) [r39] | 0 | 5.387 | 0 | 0 | 0 | 0 | 0 | 4.854 | 0
4 | CC(C)(c1ccc(O)cc1)c1ccc(O)cc1 [r40] | 0 | 4.854 | 0 | 0 | 4.569 | 0 | 6.151 | 4.886 | 0
5 | OB(O)O [r41] | 0 | 0 | 0 | 0 | 0 | 0 | 0 | 4.229 | 0
6 | O=C(Nc1ccccc1-c1ccc(Cl)cc1)c1cccnc1Cl [r42] | 0 | 0 | 6 | 0 | 4.62 | 6 | 0 | 5 | 0
7 | CCC(C)n1c(=O)[nH]c(C)c(Br)c1=O (stereo not drawn) [r43] | 0 | 0 | 0 | 0 | 0 | 0 | 0 | 4.347 | 0
8 | N#Cc1cc(Br)c(O)c(Br)c1 [r44] | 0 | 0 | 6 | 0 | 4.398 | 0 | 0 | 4.523 | 0
9 | CC(C)N1C(=O)N(c2ccccc2)CS/C1=N\C(C)(C)C [r45] | 0 | 5.42 | 6 | 0 | 0 | 6 | 0 | 5.456 | 0
10 | CCCCOCN(C(=O)CCl)c1c(CC)cccc1CC [r46] | 0 | 5.959 | 6 | 0 | 5.678 | 0 | 0 | 5.721 | 0
11 | C=CCOC(=O)C(C)(C)OC(=O)c1cc(-n2c(=O)cc(C(F)(F)F)n(C)c2=O)ccc1Cl [r47] | 0 | 0 | 6 | 0 | 0 | 0 | 0 | 0 | 0
12 | CCSC(=O)N(CC(C)C)CC(C)C [r49] | 0 | 0 | 6 | 0 | 0 | 0 | 0 | 0 | 0
13 | CC1=C(C(=O)Nc2ccccc2)SCCO1 [r53] | 0 | 0 | 0 | 0 | 4.119 | 0 | 0 | 4.328 | 0
14 | CCOC(=O)C(Cl)Cc1cc(-n2nc(C)n(C(F)F)c2=O)c(F)cc1Cl (stereo not drawn) [r54] | 0 | 4.367 | 6 | 0 | 4.319 | 0 | 0 | 4.328 | 0
